Columns and labels:
[1] = tested on: SMN2 minigene mRNA (SMN2-A minigene) in HEK293H cells; test: SMN2 minigene mRNA splicing RT-qPCR assay in cultured cells; type: cell-based, human; conditions: Homo sapiens, HEK293-H; concentration increasing full length SMN2 mRNA 1.5-fold relative to vehicle-treated cells; HEK293H cells with SMN2-A minigene, 24 hours, 7-point concentration data; read-out: EC1.5x for production of full length SMN2 mRNA
Method: The reverse transcription-quantitative PCR-based (RT-qPCR) assay is used to quantify the level of the full length SMN2 minigene mRNA containing SMN2 exon 7 in a HEK293H cell line stably transfected with said minigene and treated with a test compound.
Protocol. HEK293H cells stably transfected with the SMN2-A minigene construct described above (10,000 cells/well) are seeded in 200 μL of cell culture medium (DMEM plus 10% FBS, with 200 μg/mL hygromycin) in 96-well flat-bottom plates and the plate is immediately swirled to ensure proper dispersal of cells, forming an even monolayer of cells. Cells are allowed to attach for at least 4-6 hours. Test compounds are serially diluted 3.16-fold in 100% DMSO to generate a 7-point concentration curve. A solution of test compound (1 μL, 200× in DMSO) is added to each cell-containing well and the plate is incubated for 24 hours in a cell culture incubator (37° C., 5% CO2, 100% relative humidity). 2 replicates are prepared for each test compound concentration. The cells are then lysed in Cells-To-Ct lysis buffer and the lysate is stored at −80° C.
Primer SMN Forward A (SEQ ID NO. 1) hybridizes to a nucleotide sequence in exon 7 (nucleotide 22 to nucleotide 40), primer SMN Reverse A (SEQ ID NO. 2) hybridizes to a nucleotide sequence in the coding sequence of Firefly luciferase, SMN Probe A (SEQ ID NO. 3) hybridizes to a nucleotide sequence in exon 7 (nucleotide 50 to nucleotide 54) and exon 8 (nucleotide 1 to nucleotide 21). The combination of these three oligonucleotides detects only SMN1 or SMN2 minigenes (RT-qPCR) and will not detect endogenous SMN1 or SMN2 genes.
The SMN forward and reverse primers are used at final concentrations of 0.4 μM. The SMN probe is used at a final concentration of 0.15 μM. The GAPDH primers are used at final concentrations of 0.2 μM and the probe at 0.15 μM.
The SMN2-minigene GAPDH mix (15 μL total volume) is prepared by combining 7.5 μL of 2× RT-PCR buffer, 0.4 μL of 25× RT-PCR enzyme mix, 0.75 μL of 20× GAPDH primer-probe mix, 4.0075 μL of water, 2 μL of 10-fold diluted cell lysate, 0.06 μL of 100 μM SMN forward primer, 0.06 μL of 100 μM SMN reverse primer, and […].
PCR is carried out at the following temperatures for the indicated time: Step 1: 48° C. (15 min); Step 2: 95° C. (10 min); Step 3: 95° C. (15 sec); Step 4: 60° C. (1 min); then repeat Steps 3 and 4 for a total of 40 cycles.
Each reaction mixture contains both SMN2-A minigene and GAPDH primers/probe sets (multiplex design), allowing simultaneous measurement of the levels of two transcripts.
Two SMN spliced products are generated from the SMN2 minigene. The first spliced product containing exon 7, corresponding to full length SMN2 mRNA, is referred to herein using the term “SMN2 minigene FL.” The second spliced product lacking exon 7 is referred to herein using the term “SMN2 minigene Δ7.”
The increase of SMN2 minigene FL mRNA relative to that in cells treated with vehicle control is determined from real-time PCR data using a modified ΔΔCt method (as described in Livak and Schmittgen, Methods, 2001, 25:402-8). The amplification efficiency (E) is calculated from the slope of the amplification curve for SMN2 minigene FL and GAPDH individually. The abundances of SMN2 minigene FL and GAPDH are then calculated as (1+E)^−Ct, where Ct is the threshold value for each amplicon. The abundance of SMN2 minigene FL is normalized to GAPDH abundance. The normalized SMN2 minigene FL abundance from test compound-treated samples is then divided by normalized SMN2 minigene FL abundance from vehicle-treated cells to determine the level of SMN2 FL mRNA relative to vehicle control.
For compounds of Formula (I) or a form thereof disclosed herein, Table 4 provides the […] for production of full length SMN2 mRNA that was obtained from the 7-point concentration data generated for each test compound according to the procedure of Biological Example 2. […]

[2] = tested on: Smn protein in SMA patient fibroblast cells (GM03813); test: Smn protein assay in cultured cells (SMN HTRF); type: cell-based, human; conditions: SMA patient fibroblast cells, 48 hours; for EC1.5x for Smn protein expression: 7-point concentration curve, SMN HTRF, concentration producing 1.5 times Smn protein vs DMSO vehicle control; for maximum fold (Fold) increase of Smn protein: 7-point concentration data, fold relative to vehicle control
Method: The SMN HTRF (homogeneous time resolved fluorescence) assay is used to quantify the level of Smn protein in SMA patient fibroblast cells treated with test compounds.
Protocol. Cells are thawed and cultured in DMEM-10% FBS for 72 hours. Cells are trypsinized, counted and re-suspended to a concentration of 25,000 cells/mL in DMEM-10% FBS. The cell suspension is plated at 5,000 cells per well in a 96 well microtiter plate and incubated for 3 to 5 hours. […] Test compounds are serially diluted 3.16-fold in 100% DMSO to generate a 7-point concentration curve. 1 μL of test compound solution is transferred to cell-containing wells and cells are incubated for 48 hours in a cell culture incubator (37° C., 5% CO2, 100% relative humidity). Triplicate samples are set up for each test compound concentration. After 48 hours, the supernatant is removed from the wells and 25 μL of the RIPA lysis buffer, containing protease inhibitors, is added to the wells and incubated with shaking at room temperature for 1 hour. 25 μL of the diluent is added and then 35 μL of the resulting lysate is transferred to a 384-well plate, where each well contains 5 μL of the antibody solution (1:100 dilution of anti-SMN d2 and anti-SMN kryptate in SMN reconstitution buffer). The plate is centrifuged for 1 minute to bring the solution to the bottom of the wells, then incubated overnight at room temperature. Fluorescence for each well of the plate at 665 nm and 620 nm is measured on an EnVision multilabel plate reader (Perkin-Elmer).
The normalized fluorescence signal is calculated for each sample, Blank and vehicle control well by dividing the signal at 665 nm by the signal at 620 nm. Normalizing the signal accounts for possible fluorescence quenching due to the matrix effect of the lysate. The ΔF value (a measurement of Smn protein abundance as a percent value) for each sample well is calculated by subtracting the normalized average fluorescence for the Blank control wells from the normalized fluorescence for each sample well, then dividing this difference by the normalized average fluorescence for the Blank control wells and multiplying the resulting value by 100. The ΔF value for each sample well represents the Smn protein abundance from test compound-treated samples. The ΔF value for each sample well is divided by the ΔF value for the vehicle control wells to calculate the fold increase in Smn protein abundance relative to the vehicle control.
For compounds of Formula (I) or a form thereof disclosed herein, Table 9 provides the EC1.5× for Smn protein expression that was obtained from the 7-point concentration data generated for each test compound according to the procedure of Biological Example 7. The term “EC1.5× for Smn protein expression” is defined as that concentration of test compound that is effective in producing 1.5 times the amount of Smn protein in an SMA patient fibroblast cell compared to the amount produced from the DMSO vehicle control. An EC1.5× for Smn protein expression between >3 μM and ≤10 μM is indicated by one star (*), an EC1.5× between >1 μM and ≤3 μM is indicated by two stars (**), an EC1.5× between >0.3 μM and ≤1 μM is indicated by three stars (***) and an EC1.5x≤0.3 μM is indicated by four stars (****).
For compounds of Formula (I) or a form thereof disclosed herein, Table 10 provides the maximum fold (Fold) increase of Smn protein that was obtained from the 7-point concentration data generated for each test compound according to the procedure of Biological Example 7. A maximum fold increase of ≤1.2 is indicated by one star (*), a fold increase between >1.2 and ≤1.35 is indicated by two stars (**), a fold increase between >1.35 and ≤1.5 is indicated by three stars (***), a fold increase between >1.5 and ≤1.65 is indicated by four stars (****) and a fold increase >1.65 is indicated by five stars (*****).

Compound | EC (1.5-fold increase) [1] [µM] | EC1.5x for Smn protein expression [2] | maximum fold (Fold) increase of Smn protein [2]
Cc1cn2nc(-c3cc(=O)n4cc(N5C[C@@H](C)N[C@@H](C)C5)ccc4n3)cc2c(C)n1 [Compound 131, 7-[(3R,5S)-3,5-dimethylpiperazin-1-yl]-2-(4,6-dimethylpyrazolo[1,5-a]pyrazin-2-yl)-4H-pyrido[1,2-a]pyrimidin-4-one] | < 0.1 | ** (an EC1.5× between >1 μM and ≤3 μM is indicated by two stars (**)) | *** (a fold increase between >1.35 and ≤1.5 is indicated by three stars (***))
Cc1cn2nc(-c3cc(=O)n4cc(N5CCCNCC5)ccc4n3)cc2c(C)n1 [Compound 132, 7-(1,4-diazepan-1-yl)-2-(4,6-dimethylpyrazolo[1,5-a]pyrazin-2-yl)-4H-pyrido[1,2-a]pyrimidin-4-one] | < 0.1 | **** (an EC1.5x≤0.3 μM is indicated by four stars (****)) | ***** (a fold increase >1.65 is indicated by five stars (*****))
COc1cc(-c2cc(=O)n3cc(N4CCNCC4)ccc3n2)cc(F)c1OC [Compound 145, 2-(3-fluoro-4,5-dimethoxyphenyl)-7-(piperazin-1-yl)-4H-pyrido[1,2-a]pyrimidin-4-one] | 1 to 3 |  | * (A maximum fold increase of ≤1.2 is indicated by one star (*))
Cc1nc2cc(-c3cc(=O)n4cc(N5CCN[C@@H](C)C5)ccc4n3)ccc2o1 [Compound 156, 2-(2-methyl-1,3-benzoxazol-5-yl)-7-[(3S)-3-methylpiperazin-1-yl]-4H-pyrido[1,2-a]pyrimidin-4-one] | 0.3 to 1 |  | *** (a fold increase between >1.35 and ≤1.5 is indicated by three stars (***))
COc1ccc(-c2cc(=O)n3cc(N4CCNCC4)cc(C)c3n2)cc1OC [Compound 160, 2-(3,4-dimethoxyphenyl)-9-methyl-7-(piperazin-1-yl)-4H-pyrido[1,2-a]pyrimidin-4-one] | < 0.1 | *** (an EC1.5× between >0.3 μM and ≤1 μM is indicated by three stars (***)) | *** (a fold increase between >1.35 and ≤1.5 is indicated by three stars (***))
COc1ccc(-c2cc(=O)n3cc(NC4CCNCC4)ccc3n2)cc1OC [Compound 187, 2-(3,4-dimethoxyphenyl)-7-(piperidin-4-ylamino)-4H-pyrido[1,2-a]pyrimidin-4-one] | 1 to 3 |  | ** (a fold increase between >1.2 and ≤1.35 is indicated by two stars (**))
Cn1cc(-c2cc(=O)n3cc(N4CCNCC4)ccc3n2)cn1 [Compound 192, 2-(1-methyl-1H-pyrazol-4-yl)-7-(piperazin-1-yl)-4H-pyrido[1,2-a]pyrimidin-4-one] | 1 to 3 | ** (an EC1.5× between >1 μM and ≤3 μM is indicated by two stars (**)) | ***** (a fold increase >1.65 is indicated by five stars (*****))
COc1ccc(-c2cc(=O)n3cc(N4CCC(N)CC4)ccc3c2)cc1F [Compound 201, 7-(4-aminopiperidin-1-yl)-2-(3-fluoro-4-methoxyphenyl)-4H-quinolizin-4-one] | < 0.1 | *** (an EC1.5× between >0.3 μM and ≤1 μM is indicated by three stars (***)) | *** (a fold increase between >1.35 and ≤1.5 is indicated by three stars (***))
COc1ccc(-c2cc(=O)n3cc(N4CCC(N(C)C)CC4)ccc3c2)cc1F [Compound 203, 7-[4-(dimethylamino)piperidin-1-yl]-2-(3-fluoro-4-methoxyphenyl)-4H-quinolizin-4-one] | 1 to 3 |  | * (A maximum fold increase of ≤1.2 is indicated by one star (*))
COc1ccc(-c2cc(=O)n3cc(OC4CCN(C)CC4)ccc3n2)cc1OC [Compound 235, 2-(3,4-dimethoxyphenyl)-7-[(1-methylpiperidin-4-yl)oxy]-4H-pyrido[1,2-a]pyrimidin-4-one] | 0.3 to 1 | ** (an EC1.5× between >1 μM and ≤3 μM is indicated by two stars (**)) | **** (a fold increase between >1.5 and ≤1.65 is indicated by four stars (****))

Source: US11753407B2, “Compounds for treating spinal muscular atrophy” (PTC Therapeutics, Inc., priority 2012, dated 2023)
